Test results published in US20230167127A1, “COMPOUNDS AND THEIR USE IN THE TREATMENT OF BACTERIAL INFECTION” (Hoffmann-La Roche Inc., priority 2020, published 2023).
Where a name gives a salt, the structure may show the parent alone. Read-outs that look alike come from different tables or passages of the source.

Tested on: Escherichia coli ATCC 25922
Assay: 50% growth inhibitory concentration (IC50) determination, Iso-Sensitest broth dilution
Assay type: cell-based
Conditions: strain Escherichia coli ATCC 25922, 10-point broth dilution, optical density at 600 nm over 16 h, read-out: Escherichia coli growth inhibition IC50
In short: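 10-point twofold Iso-Sensitest broth dilution (e.g. 50 to 0.097 μM final) with DMSO stocks, incubated at 35±2° C. Growth followed by OD 600 nm every 20 min over 16 h; IC50 derived from growth inhibition during logarithmic phase.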

[1] = Escherichia coli, ATCC25922, 16 h

Row | SMILES | IC50 [1] | IC50
1 | Cc1nc(OCC2CNC(=O)C2)c(C)c2c1CC(CNCCC1CN(c3ccc4c(n3)NC(=O)CO4)C(=O)O1)C2 (centres unmarked) [Example 102, 6-[5-[2-[[1,4-dimethyl-3-[(5-oxopyrrolidin-3-yl)methoxy]-6,7-dihydro-5H-cyclopenta[c]pyridin-6-yl]methylamino]ethyl]-2-oxo-1,3-oxazolidin-3-yl]-4H-pyrido[3,2-b][1,4]oxazin-3-one] | 0.871 µM | 
2 | Cc1nccc2c1CC(CNCCc1cn(-c3cnc4c(n3)NC(=O)CO4)c(=O)o1)C2 (centres unmarked) [Example 371, 6-[5-[2-[(1-methyl-6,7-dihydro-5H-cyclopenta[c]pyridin-6-yl)methylamino]ethyl]-2-oxo-1,3-oxazol-3-yl]-4H-pyrazino[2,3-b][1,4]oxazin-3-one] | < 0.0977 µM | 
3 | Cc1ncc(F)c2c1CC(NCCCc1cn(-c3cnc4c(n3)NC(=O)CO4)c(=O)o1)C2 (single isomer, unassigned; enantiomer b) [Example 368, 6-[5-[3-[(4-Fluoro-1-methyl-6,7-dihydro-5H-cyclopenta[c]pyridin-6-yl)amino]propyl]-2-oxo-1,3-oxazol-3-yl]-4H-pyrazino[2,3-b][1,4]oxazin-3-one, Enantiomer B] |  | < 0.0977 µM
4 | CNC(=O)COc1cc2c(c(Cl)n1)CC(CNCCC1CN(c3ccc4c(n3)NC(=O)CO4)C(=O)O1)C2 (centres unmarked) [Example 66, 2-[[1-chloro-6-[[2-[2-oxo-3-(3-oxo-4H-pyrido[3,2-b][1,4]oxazin-6-yl)oxazolidin-5-yl]ethylamino]methyl]-6,7-dihydro-5H-cyclopenta[c]pyridin-3-yl]oxy]-N-methyl-acetamide] | 0.234 µM | 
5 | Cc1nccc2c1CC(NCCCc1cn(-c3cnc4c(n3)NC(=O)CO4)c(=O)o1)C2 (single isomer, unassigned; enantiomer a) [Example 369, 6-[5-[3-[(1-Methyl-6,7-dihydro-5H-cyclopenta[c]pyridin-6-yl)amino]propyl]-2-oxo-1,3-oxazol-3-yl]-4H-pyrazino[2,3-b][1,4]oxazin-3-one; formic acid, Enantiomer A] | 0.172 µM | 
6 | N#Cc1cc(OC2CNC2)cc2c1CC(CNCCC1CN(c3ccc4c(n3)NC(=O)CO4)C(=O)O1)C2 (centres unmarked) [Example 190, 6-(azetidin-3-yloxy)-2-[[2-[2-oxo-3-(3-oxo-4H-pyrido[3,2-b][1,4]oxazin-6-yl)-1,3-oxazolidin-5-yl]ethylamino]methyl]-2,3-dihydro-1H-indene-4-carbonitrile; 2,2,2-trifluoroacetic acid] | < 0.0977 µM | 
7 | N#Cc1c(OCCN2CCOCC2)ccc2c1CC(CNCCC1CN(c3ccc4c(n3)NC(=O)CO4)C(=O)O1)C2 (centres unmarked) [Example 54, 5-(2-morpholin-4-ylethoxy)-2-[[2-[2-oxo-3-(3-oxo-4H-pyrido[3,2-b][1,4]oxazin-6-yl)-1,3-oxazolidin-5-yl]ethylamino]methyl]-2,3-dihydro-1H-indene-4-carbonitrile; formic acid] | 0.357 µM | 
8 | NC1(CCNCC2Cc3cccc(Cl)c3C2)CC(=O)N(c2ccc3c(n2)NC(=O)CO3)C1 (centres unmarked) [Example 140, 6-[4-amino-4-[2-[(4-chloro-2,3-dihydro-1H-inden-2-yl)methylamino]ethyl]-2-oxopyrrolidin-1-yl]-4H-pyrido[3,2-b][1,4]oxazin-3-one] | 0.314 µM | 
9 | NCCOc1cc(Cl)c2c(c1)CC(CNCCC1CN(c3ccc4c(n3)NC(=O)CO4)C(=O)O1)C2 (centres unmarked) [Example 177, 6-[5-[2-[[6-(2-aminoethoxy)-4-chloro-2,3-dihydro-1H-inden-2-yl]methylamino]ethyl]-2-oxo-1,3-oxazolidin-3-yl]-4H-pyrido[3,2-b][1,4]oxazin-3-one] | < 0.0977 µM | 
10 | N#Cc1nccc2c1CC(NCCCC1CN(c3ccc4c(n3)NC(=O)CO4)C(=O)O1)C2 (centres unmarked) [Example 95, 6-[3-[2-oxo-3-(3-oxo-4H-pyrido[3,2-b][1,4]oxazin-6-yl)-1,3-oxazolidin-5-yl]propylamino]-6,7-dihydro-5H-cyclopenta[c]pyridine-1-carbonitrile] | 0.232 µM | 
11 | CNC(=O)COc1nc(C)c2c(c1C)CC(CNCCC1CN(c3ccc4c(n3)NC(=O)CO4)C(=O)O1)C2 (centres unmarked) [Example 110, 2-[[1,4-dimethyl-6-[[2-[2-oxo-3-(3-oxo-4H-pyrido[3,2-b][1,4]oxazin-6-yl)-1,3-oxazolidin-5-yl]ethylamino]methyl]-6,7-dihydro-5H-cyclopenta[c]pyridin-3-yl]oxy]-N-methylacetamide] | 0.311 µM | 
12 | O=C1COc2ccc(N3CC([C@H]4C[C@H](NC5Cc6cccc(Cl)c6C5)C4)OC3=O)nc2N1 (stereo partly drawn) [Example 17, 6-[5-[trans-3-[(4-chloro-2,3-dihydro-1H-inden-2-yl)amino]cyclobutyl]-2-oxo-1,3-oxazolidin-3-yl]-4H-pyrido[3,2-b][1,4]oxazin-3-one] | 0.823 µM | 
13 | N#Cc1cc(OC[C@H](N)CO)cc2c1CC(CNCCC1CN(c3ccc4c(n3)NC(=O)CO4)C(=O)O1)C2 (stereo partly drawn) [Example 236, 6-[(2R)-2-Amino-3-hydroxypropoxy]-2-[[2-[2-oxo-3-(3-oxo-4H-pyrido[3,2-b][1,4]oxazin-6-yl)-1,3-oxazolidin-5-yl]ethylamino]methyl]-2,3-dihydro-1H-indene-4-carbonitrile] | < 0.0977 µM | 
14 | O=C1COc2ncc(N3CC4(CCN(CC5Cc6ccnc(Cl)c6C5)CC4)OC3=O)nc2N1 (centres unmarked) [Example 373, 6-[8-[(1-chloro-6,7-dihydro-5H-cyclopenta[c]pyridin-6-yl)methyl]-2-oxo-1-oxa-3,8-diazaspiro[4.5]decan-3-yl]-4H-pyrazino[2,3-b][1,4]oxazin-3-one] | < 0.0977 µM | 
15 | N#Cc1cccc2c1CC(NCC(O)CC1CN(c3ccc4c(n3)NC(=O)CO4)C(=O)O1)C2 (centres unmarked) [Example 238, 2-[[2-Hydroxy-3-[2-oxo-3-(3-oxo-4H-pyrido[3,2-b][1,4]oxazin-6-yl)-1,3-oxazolidin-5-yl]propyl]amino]-2,3-dihydro-1H-indene-4-carbonitrile hydrochloride] | 0.17 µM | 
16 | N#Cc1c(OCCN2CCNCC2)ccc2c1CC(CNCCC1CN(c3ccc4c(n3)NC(=O)CO4)C(=O)O1)C2 (centres unmarked) [Example 143, 2-[[2-[2-oxo-3-(3-oxo-4H-pyrido[3,2-b][1,4]oxazin-6-yl)-1,3-oxazolidin-5-yl]ethylamino]methyl]-5-(2-piperazin-1-ylethoxy)-2,3-dihydro-1H-indene-4-carbonitrile; formic acid] | 0.833 µM | 
17 | Cc1nc(OCC2CNC(=O)CO2)c(C)c2c1CC(CNCCC1CN(c3ccc4c(n3)NC(=O)CO4)C(=O)O1)C2 (centres unmarked) [Example 101, 6-[5-[2-[[1,4-dimethyl-3-[(5-oxomorpholin-2-yl)methoxy]-6,7-dihydro-5H-cyclopenta[c]pyridin-6-yl]methylamino]ethyl]-2-oxo-1,3-oxazolidin-3-yl]-4H-pyrido[3,2-b][1,4]oxazin-3-one] | 1.39 µM | 

Results, then the compound that gave them:

Row | IC50 [1] | IC50 | SMILES
18 | 0.259 µM |  | COc1nc(C)c2c(c1C)CC(CNCCC1CN(c3ccc4c(n3)NC(=O)CO4)C(=O)O1)C2 (centres unmarked) [Example 106, 6-[5-[2-[(3-methoxy-1,4-dimethyl-6,7-dihydro-5H-cyclopenta[c]pyridin-6-yl)methylamino]ethyl]-2-oxo-1,3-oxazolidin-3-yl]-4H-pyrido[3,2-b][1,4]oxazin-3-one]
19 | < 0.0977 µM |  | N#Cc1cccc2c1CC(CNCCC1CN(c3cnc4c(n3)NC(=O)CO4)C(=O)O1)C2 (centres unmarked) [Example 35, 2-[[2-[2-oxo-3-(3-oxo-4H-pyrazino[2,3-b][1,4]oxazin-6-yl)-1,3-oxazolidin-5-yl]ethylamino]methyl]-2,3-dihydro-1H-indene-4-carbonitrile]
20 | < 0.0977 µM |  | CC(C)(N)COc1cc(F)c2c(c1)CC(CNCC[C@H]1CN(c3cnc4c(n3)NC(=O)CO4)C(=O)O1)C2 (stereo partly drawn) [Example 341, 6-[(5S)-5-[2-[[6-(2-amino-2-methylpropoxy)-4-fluoro-2,3-dihydro-1H-inden-2-yl]methylamino]ethyl]-2-oxo-1,3-oxazolidin-3-yl]-4H-pyrazino[2,3-b][1,4]oxazin-3-one; formic acid]
21 | < 0.0977 µM |  | COc1ncc(F)c2c1CC(CNCCC1CN(c3cnc4c(n3)NC(=O)CO4)C(=O)O1)C2 (centres unmarked) [Example 71, 6-[5-[2-[(4-fluoro-1-methoxy-6,7-dihydro-5H-cyclopenta[c]pyridin-6-yl)methylamino]ethyl]-2-oxo-oxazolidin-3-yl]-4H-pyrazino[2,3-b][1,4]oxazin-3-one]
22 | 0.156 µM |  | Cc1c(F)cnc2c1CC(CNCCC1CN(c3ccc4c(n3)NC(=O)CO4)C(=O)O1)C2 (centres unmarked) [Example 300, 6-[5-[2-[(3-fluoro-4-methyl-6,7-dihydro-5H-cyclopenta[b]pyridin-6-yl)methylamino]ethyl]-2-oxo-1,3-oxazolidin-3-yl]-4H-pyrido[3,2-b][1,4]oxazin-3-one]
23 | 0.175 µM |  | O=C1COc2ncc(N3CC(CCNCC4Cc5cc(OCCn6cnnn6)cc(F)c5C4)OC3=O)nc2N1 (centres unmarked) [Example 347, 6-[5-[2-[[4-fluoro-6-[2-(tetrazol-1-yl)ethoxy]-2,3-dihydro-1H-inden-2-yl]methylamino]ethyl]-2-oxo-1,3-oxazolidin-3-yl]-4H-pyrazino[2,3-b][1,4]oxazin-3-one; formic acid]
24 | 0.317 µM |  | O=C1COc2ncc(N3CC(CCNCC4Cc5cc(OCCn6ncnn6)cc(F)c5C4)OC3=O)nc2N1 (centres unmarked) [Example 348, 6-[5-[2-[[4-fluoro-6-[2-(tetrazol-2-yl)ethoxy]-2,3-dihydro-1H-inden-2-yl]methylamino]ethyl]-2-oxo-1,3-oxazolidin-3-yl]-4H-pyrazino[2,3-b][1,4]oxazin-3-one; formic acid]
25 | 1.27 µM |  | Cc1nnc(C)c2c1CC(CNCCC1CN(c3ccc4c(n3)NC(=O)CO4)C(=O)O1)C2 (centres unmarked) [Example 284, 6-[5-[2-[(1,4-dimethyl-6,7-dihydro-5H-cyclopenta[d]pyridazin-6-yl)methylamino]ethyl]-2-oxo-1,3-oxazolidin-3-yl]-4H-pyrido[3,2-b][1,4]oxazin-3-one]
26 | < 0.0977 µM |  | Cc1ncc(C#N)c2c1CC(CNCC[C@@H]1CN(c3cnc4c(n3)NC(=O)CO4)C(=O)O1)C2 (stereo partly drawn) [Example 365, 1-methyl-6-[[2-[(5R)-2-oxo-3-(3-oxo-4H-pyrazino[2,3-b][1,4]oxazin-6-yl)-1,3-oxazolidin-5-yl]ethylamino]methyl]-6,7-dihydro-5H-cyclopenta[c]pyridine-4-carbonitrile]
